Publication PMC7376037, “Recombinant expression, purification and PEGylation of Paneth cell peptide (cryptdin-2) with value added attributes against Staphylococcus aureus” (Scientific Reports, 2020)
≈ marks a conversion by molar mass, not a printed value. Like-named read-outs stand apart in the source and are kept apart here. Bridge positions count the residues as written; N and C are the ends. Peptide text beside a SMILES is read from it.

How the values were obtained:
Staphylococcus aureus [1] = test: Radial diffusion (agar well diffusion) assay; type: cell-based, Staphylococcus aureus (ATCC 9144); settings: peptide 100 µg/well, overnight 37 °C, S. aureus
Method: Antibacterial activity of all the cryptdin preparations was evaluated by performing radial diffusion assay. […] Following the addition of 20 μL aliquots of the cryptdin-2 preparations along with control sample (PBS) into a series of wells made in the gel, the plates were incubated overnight at 37 °C. The samples were examined for zone of clearance around the wells indicating inhibition of bacterial growth.

[2] = Serum stability (antimicrobial activity after incubation in mice sera); type: in vitro ADME; settings: for reduction of antibacterial activity after 3 h incubation with mice sera: peptide at its MIC, 50% mice serum, 37 °C, read-out micro broth dilution against S. aureus, repeated thrice in triplicates
Method: The stability of purified peptide preparations in mice sera was evaluated as described previously[15] with some modifications. Briefly, 80 µL of 50% serum was added to each well of 96-well plates followed by addition of 10 µL of bacterial suspension. The total CFU/mL value was adjusted to be identical in all the samples. Each peptide preparation (10 μL) was added to different wells and incubated at 37 °C for 0, 3, and 6 h respectively. The antimicrobial activities were assessed by performing micro broth dilution assay as described above for determination of MIC against S. aureus. The sera of mice were confirmed for absence of any intrinsic antimicrobial activity prior to performing the test.

Staphylococcus aureus [3] = type: cell-based; settings: for MIC in combination, Peptides: peptide concentration in combination with gentamicin, checkerboard, S. aureus
Method: To investigate the interactive effect of these recombinant peptides, a checkerboard assay[41] was performed using a clinically prescribed antibiotic (gentamicin) as the other antibacterial agent. The assay employs the same methodology followed for determination of the MIC as described above. MIC values of peptide and gentamicin were used in this assay in order to calculate the FIC values. All the three peptide variants and gentamicin were tried in different ratios to evaluate interaction of the agents in combination against S. aureus. The same was determined on the basis of the FIC index, wherein an index of ≤ 0.5 indicated a synergistic effect and an index > 0.5 and ≤ 2 indicated an additive or indifferent nature of interaction respectively and lastly, the interaction was confirmed to be antagonistic when the index was > 2.0.
FIC index is expressed as: FIC Index=A1/A+B1/B where A1 and B1 are the respective concentrations of gentamicin and peptide producing the combined MICs, while A and B are the MICs of the individual agents.

RAW 264.7 cell lines = test: Cell cytotoxicity assay (AlamarBlue); type: cell-based, murine; settings: 24 h
Method: The cytotoxicity of recombinant peptide variants towards RAW 264.7 cell lines was assessed using AlamarBlue (Resazurin), a cell metabolic activity reagent (Sigma)[40]. The log phase cells diluted (2 × 10^5/well) in Dulbecco's Modified Eagle Medium (DMEM) containing 10% fetal bovine serum (FBS) were cultured in 96-well microtiter plates and incubated for 12 h under 5% CO2 conditions at 37 °C. […] Following this, 0.02% Alamar blue reagent was added to the cells and incubated for 8 h. Fluorescence was measured with excitation wavelength at 545 nm and emission wavelength at 590 nm. The percent difference between treated and un-treated cells was calculated to determine percent cytotoxicity.

Staphylococcus aureus [4] = test: microbe, parasite or virus in culture; type: cell-based, Staphylococcus aureus (ATCC 9144)
Method: To determine MIC values of the peptide preparations, micro broth dilution assay was performed. Briefly, S. aureus cells were grown to mid-exponential phase and diluted to a concentration of approximately 10^7 CFU/mL. Different concentrations of AMP preparations were separately added to wells containing bacterial suspension (approximately 10^6 CFU/mL) in sterile 96-well flat-bottom plate. After incubation at 37 °C, cell growth inhibition was assessed by measuring the absorbance at 595 nm on microplate reader (BioTek). MIC was recorded as the lowest concentration of the peptide preparation at which no visible growth was observed.

[5] = cited from earlier work
Description: However, lesser adverse effect was observed on cell membrane when treated with the PEGylated peptide. These findings correlated well with the increased MIC of the peptide as observed above. It is highly probable that site-specific mutation followed by PEG-conjugat ...

Row | Compound | antimicrobial activity, zone of growth inhibition (Staphylococcus aureus [1]) | MIC after incubation with serum, 0 h [2] [µg/mL] | MIC after incubation with serum, 3 h [2] [µg/mL] | MIC after incubation with serum, 6 h [2] [µg/mL] | reduction of antibacterial activity after 3 h incubation with mice sera [2] [%] | MIC in combination, Peptides (Staphylococcus aureus [3]) [µg/mL] | cell viability (RAW 264.7 cell lines) | also measured
1 | CSCC[C@@H]1NC(=O)[C@H](CCCNC(=N)N)NC(=O)[C@H](CS)NC(=O)[C@H](CCCNC(=N)N)NC(=O)[C@H](CCCNC(=N)N)NC(=O)[C@H](CCCCN)NC(=O)[C@@H]2CSSC[C@@H]3NC(=O)[C@H](CC(C)C)NC(=O)[C@H]([C@@H](C)O)NC(=O)[C@H](Cc4ccc(O)cc4)NC(=O)[C@H](CCSC)NC(=O)[C@H](CC(C)C)NC(=O)[C@H](Cc4c[nH]cn4)NC(=O)CNC(=O)[C@H](CCCCN)NC(=O)[C@H](CCCNC(=N)N)NC(=O)[C@H](CSSC[C@H](NC(=O)[C@H](Cc4ccc(O)cc4)NC(=O)[C@@H](NC(=O)[C@@H](NC(=O)[C@H](CC(C)C)NC(=O)[C@H](CC(=O)O)NC(=O)[C@H](CCCNC(=N)N)NC(=O)[C@@H](N)CC(C)C)C(C)C)CSSC[C@@H](C(=O)N[C@@H](CCCNC(=N)N)C(=O)O)NC3=O)C(=O)N[C@@H](CCCNC(=N)N)C(=O)N[C@@H]([C@@H](C)O)C(=O)N[C@@H](CCCNC(=N)N)C(=O)NCC(=O)N2)NC(=O)[C@H]([C@@H](C)O)NC(=O)CNC(=O)[C@H](CC(N)=O)NC1=O [E18C cryptdin-2] (H-LRDLVCYCRTRGCKRRCRMNGTCRKGHLMYTLCCR-OH; disulfide 6-34, 8-23, 13-33) | potent antimicrobial activity | 20 | 40 | 60 | 50 | 2.5 | ~65% | FIC indices (Staphylococcus aureus [3]): 0.375
2 | CNC(C)C1CCC(N)C(OC2C(N)CC(N)C(OC3OCC(C)(O)C(NC)C3O)C2O)O1 (stereo not shown) [Gentamicin, gentamicin, reference compound] |  |  |  |  |  |  |  | MIC (Staphylococcus aureus [4]; agent alone against Staphylococcus aureus, Table 1, read-out: MIC): 0.097 µg/mL (≈ 0.203 µM)
3 | CSCC[C@@H]1NC(=O)[C@H](CCCNC(=N)N)NC(=O)[C@H](CCC(=O)O)NC(=O)[C@H](CCCNC(=N)N)NC(=O)[C@H](CCCNC(=N)N)NC(=O)[C@H](CCCCN)NC(=O)[C@@H]2CSSC[C@@H]3NC(=O)[C@H](CC(C)C)NC(=O)[C@H]([C@@H](C)O)NC(=O)[C@H](Cc4ccc(O)cc4)NC(=O)[C@H](CCSC)NC(=O)[C@H](CC(C)C)NC(=O)[C@H](Cc4c[nH]cn4)NC(=O)CNC(=O)[C@H](CCCCN)NC(=O)[C@H](CCCNC(=N)N)NC(=O)[C@H](CSSC[C@H](NC(=O)[C@H](Cc4ccc(O)cc4)NC(=O)[C@@H](NC(=O)[C@@H](NC(=O)[C@H](CC(C)C)NC(=O)[C@H](CC(=O)O)NC(=O)[C@H](CCCNC(=N)N)NC(=O)[C@@H](N)CC(C)C)C(C)C)CSSC[C@@H](C(=O)N[C@@H](CCCNC(=N)N)C(=O)O)NC3=O)C(=O)N[C@@H](CCCNC(=N)N)C(=O)N[C@@H]([C@@H](C)O)C(=O)N[C@@H](CCCNC(=N)N)C(=O)NCC(=O)N2)NC(=O)[C@H]([C@@H](C)O)NC(=O)CNC(=O)[C@H](CC(N)=O)NC1=O [cryptdin-2] (H-LRDLVCYCRTRGCKRRERMNGTCRKGHLMYTLCCR-OH; disulfide 6-34, 8-23, 13-33) | potent antimicrobial activity | 20 | 40 | 70 | 50 | 2.5 | approximately 70% | MIC (Staphylococcus aureus [4]): 20 µg/mL (≈ 4.71 µM)
4 | magainin 2 |  |  |  |  |  |  |  | decrease in antimicrobial activity after PEG conjugation ([5]; 5 kDa PEG at N-terminal end): fourfold
5 | nisin |  |  |  |  |  |  |  | antimicrobial activity after PEGylation ([5]; PEGylation via amine group of the lysine side-chain): inactive conjugate
